Test results reported in publication PMC10466331, “Fluorescence polarisation activity-based protein profiling for the identification of deoxynojirimycin-type inhibitors selective for lysosomal retaining alpha- and beta-glucosidases” (Chemical Science, 2023).
Like-named read-outs stand apart in the source and are kept apart here.

Legend:
Assay type in all cases: biochemical
[1] = biological target: T1, human recombinant lysosomal α-glucosidase GAA (Myozyme) (Homo sapiens, UniProt P10253); assay: fluorogenic substrate (4MU-α-D-glucopyranoside) assay on rhGAA
T1 construct: purchased Genzyme

[2] = biological target: T2, recombinant human GAA (rhGAA, Myozyme) (Homo sapiens, UniProt P10253); assay: competitive FluoPol-ABPP assay on rhGAA with TAMRA-ABP II; settings: library screen, 5 μM inhibitor, 25 nM ABP II;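 note: fluorescence polarization read at 540 nm excitation and 590 nm emission, background-corrected, normalized to uninhibited probe labelling as 100% and excess cyclosulfate as 0%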
T2 construct: purchased Genzyme

[3] = biological target: T3, ER α-glucosidase GANAB (from Pompe disease Fibroblast lysates) (Homo sapiens, UniProt Q14697); assay: fluorogenic substrate (4MU-α-D-glucopyranoside) assay on GANAB in Pompe fibroblast homogenates;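 note: inhibitor preincubated 30 min at 37 °C with homogenate, then GANAB activity read after 2 h with 3.0 mM fluorogenic substrate in McIlvaine buffer containing 0.1% BSA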
T3 construct: Cellular homogenates of Pompe fibroblasts (1 mg mL^−1) were used as protein source for GANAB; endogenous in cells; host or cells: Pompe disease fibroblasts (homogenate)
T3 sequence (Q14697 29-944): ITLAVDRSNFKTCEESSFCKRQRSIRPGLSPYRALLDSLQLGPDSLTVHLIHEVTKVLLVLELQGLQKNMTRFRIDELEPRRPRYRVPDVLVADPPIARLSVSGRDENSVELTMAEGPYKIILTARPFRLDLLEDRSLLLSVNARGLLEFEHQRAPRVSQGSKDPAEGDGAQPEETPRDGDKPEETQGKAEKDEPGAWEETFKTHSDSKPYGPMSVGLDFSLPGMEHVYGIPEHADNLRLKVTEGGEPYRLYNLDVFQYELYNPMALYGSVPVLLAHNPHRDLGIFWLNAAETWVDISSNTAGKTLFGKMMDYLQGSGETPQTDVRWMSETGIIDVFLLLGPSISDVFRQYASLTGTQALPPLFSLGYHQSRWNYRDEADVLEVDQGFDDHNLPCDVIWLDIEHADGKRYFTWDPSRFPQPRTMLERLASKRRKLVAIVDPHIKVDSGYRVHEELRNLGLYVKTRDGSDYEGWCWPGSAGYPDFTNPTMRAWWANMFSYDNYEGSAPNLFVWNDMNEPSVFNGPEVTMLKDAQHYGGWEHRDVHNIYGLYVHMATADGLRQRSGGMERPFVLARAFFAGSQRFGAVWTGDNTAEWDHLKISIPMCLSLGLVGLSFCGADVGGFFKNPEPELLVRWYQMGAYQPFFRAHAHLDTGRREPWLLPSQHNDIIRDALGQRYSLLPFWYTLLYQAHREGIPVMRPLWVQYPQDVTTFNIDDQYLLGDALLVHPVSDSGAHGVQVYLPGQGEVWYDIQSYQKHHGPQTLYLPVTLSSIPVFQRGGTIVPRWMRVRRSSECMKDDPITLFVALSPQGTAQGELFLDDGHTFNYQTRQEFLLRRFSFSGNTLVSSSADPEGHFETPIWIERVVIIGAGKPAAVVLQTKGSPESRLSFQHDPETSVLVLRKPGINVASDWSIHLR
T3 sequence (P14314 15-528 partner): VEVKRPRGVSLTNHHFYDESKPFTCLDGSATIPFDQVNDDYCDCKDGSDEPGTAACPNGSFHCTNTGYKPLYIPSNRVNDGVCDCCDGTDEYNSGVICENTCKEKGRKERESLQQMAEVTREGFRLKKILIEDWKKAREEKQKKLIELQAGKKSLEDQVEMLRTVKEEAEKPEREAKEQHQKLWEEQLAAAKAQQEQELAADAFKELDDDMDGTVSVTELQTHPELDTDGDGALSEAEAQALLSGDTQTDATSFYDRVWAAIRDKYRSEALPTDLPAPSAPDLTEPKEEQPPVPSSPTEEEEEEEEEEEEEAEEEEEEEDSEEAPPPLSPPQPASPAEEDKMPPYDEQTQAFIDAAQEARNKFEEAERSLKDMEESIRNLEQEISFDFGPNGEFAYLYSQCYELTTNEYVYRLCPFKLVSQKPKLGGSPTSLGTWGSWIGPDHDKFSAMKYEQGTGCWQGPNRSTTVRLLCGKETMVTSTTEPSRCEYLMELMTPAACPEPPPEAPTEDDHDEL

[4] = Table S2, 4-MU alpha glucoside substrate, read-out: IC50 on rhGAA
[5] = Table S2, 4-MU alpha glucoside substrate, read-out: IC50 on GANAB

| Structure (SMILES) | IC50 [1, 4] [nM] | IC50 [3, 5] [nM] | GAA FP% (residual FP-signal) [2] [%] | other results |
| --- | --- | --- | --- | --- |
| OC[C@@H]1[C@@H](O)[C@H](O)[C@@H](O)CN1CCCCCOCc1ccc(-c2ccccc2)cc1 [Compound 6] | 1200 | 8300 |  | IC50 ([1]; 4MU-α-glucoside substrate, pH 4.0, mean ± SD, 3 technical replicates, read-out: IC50 GAA): 1180 ± 310 nM; GAA FP% (residual FP-signal) ([2]; listed as 62): 3.8%; IC50 ([3]; 4MU-α-glucoside substrate, pH 7.0, mean ± SD, 3 technical replicates, read-out: IC50 GANAB): 8290 ± 170 nM |
| N#Cc1ccc(-c2ccc(COCCCCCN3C[C@H](O)[C@@H](O)[C@H](O)[C@H]3CO)cc2)cc1 [#ID 309] | 37 | 420 | 0.1 |  |
| Cc1cccc(-c2ccc(COCCCCCN3C[C@H](O)[C@@H](O)[C@H](O)[C@H]3CO)cc2)c1 [#ID 302] | 20 | 1600 | 0.1 |  |
| OC[C@@H]1[C@@H](O)[C@H](O)[C@@H](O)CN1CCCCCOCc1ccc(-c2ccc(F)cc2)cc1 [#ID 311] | 43 | 1400 | 0.9 |  |
| Cc1ccccc1-c1ccc(COCCCCCN2C[C@H](O)[C@@H](O)[C@H](O)[C@H]2CO)cc1 [#ID 326] | 12 | 690 | 0.8 |  |
| OC[C@@H]1[C@@H](O)[C@H](O)[C@@H](O)CN1CCCCCOCc1ccc(-c2ccc(C(F)(F)F)cc2)cc1 [#ID 307] | 36 | 1700 | 2.5 |  |
| CCCCCCCOCCCCCN1C[C@H](O)[C@@H](O)[C@H](O)[C@H]1CO [#ID 276] |  |  |  | IC50 ([1]; Table S2, 4-MU alpha glucoside substrate, listed as 276, read-out: IC50 on rhGAA): 72 nM; GAA FP% (residual FP-signal) ([2]; listed as 276): 0.6%; IC50 ([3]; Table S2, 4-MU alpha glucoside substrate, listed as 276, read-out: IC50 on GANAB): 1810 nM |
| N#Cc1cccc(-c2ccc(COCCCCCN3C[C@H](O)[C@@H](O)[C@H](O)[C@H]3CO)cc2)c1 [#ID 310] | 54 | 1000 | 2.5 |  |
| OC[C@@H]1[C@@H](O)[C@H](O)[C@@H](O)CN1CCCCCOCc1ccc(-c2ccncc2)cc1 [#ID 316] | 89 | 1300 | 1.1 |  |
| OC[C@@H]1[C@@H](O)[C@H](O)[C@@H](O)CN1CCCCCOCC(COCCCCCN1C[C@H](O)[C@@H](O)[C@H](O)[C@H]1CO)C12CC3CC(CC(C3)C1)C2 [#ID 197] | 220 | 1300 | 0.4 |  |
| OC[C@@H]1[C@@H](O)[C@H](O)[C@@H](O)CN1CCCCCOCc1cccc(-c2ccccc2)c1 [#ID 341] | 54 | 520 | 1.8 |  |
| CC(C)=CCC/C(C)=C/CC/C(C)=C/CN1C[C@H](O)[C@@H](O)[C@H](O)[C@H]1CO [#ID 16] | 320 | 8800 | 0.9 |  |
| CCCCOCCCCCN1C[C@H](O)[C@@H](O)[C@H](O)[C@H]1CO [#ID 19] |  |  |  | IC50 ([1]; Table S2, 4-MU alpha glucoside substrate, listed as 19, read-out: IC50 on rhGAA): 350 nM; GAA FP% (residual FP-signal) ([2]; listed as 19): 28%; IC50 ([3]; Table S2, 4-MU alpha glucoside substrate, listed as 19, read-out: IC50 on GANAB): 3600 nM |
| CCCCCOCCCCCN1C[C@H](O)[C@@H](O)[C@H](O)[C@H]1CO [#ID 281] |  |  |  | IC50 ([1]; Table S2, 4-MU alpha glucoside substrate, listed as 281, read-out: IC50 on rhGAA): 540 nM; GAA FP% (residual FP-signal) ([2]; listed as 281): 4.2%; IC50 ([3]; Table S2, 4-MU alpha glucoside substrate, listed as 281, read-out: IC50 on GANAB): 3700 nM |
| OC[C@@H]1[C@@H](O)[C@H](O)[C@@H](O)CN1CCCCCOCc1ccc(-c2ccc(Br)cc2)cc1 [#ID 348] | 23 | 610 | 3.1 |  |
| CC(C)=CCOCCCCCN1C[C@H](O)[C@@H](O)[C@H](O)[C@H]1CO [#ID 100] | 600 | 9900 | 19 |  |
| CCCCCCCCCOCCCCCN1C[C@H](O)[C@@H](O)[C@H](O)[C@H]1CO [#ID 27] | 280 | 2800 | 8.4 |  |
| CC(C)=CCC/C(C)=C/CC/C(C)=C/COCCCCCN1C[C@H](O)[C@@H](O)[C@H](O)[C@H]1CO [#ID 90] | 490 | 2500 | 6.8 |  |
| OC[C@@H]1[C@@H](O)[C@H](O)[C@@H](O)CN1CCCCCOCc1ccc(-c2ccccc2)cc1F [#ID 35] | 21 | 710 | 4.8 |  |
| CCCCCOCCCCCN1C[C@H](O)[C@@H](O)[C@H](O)[C@H]1CO [#ID 20] |  |  |  | IC50 ([1]; Table S2, 4-MU alpha glucoside substrate, listed as 20, read-out: IC50 on rhGAA): 330 nM; GAA FP% (residual FP-signal) ([2]; listed as 20): 17%; IC50 ([3]; Table S2, 4-MU alpha glucoside substrate, listed as 20, read-out: IC50 on GANAB): 19000 nM |
| CCCCCCCCOCCCCCN1C[C@H](O)[C@@H](O)[C@H](O)[C@H]1CO [#ID 25] | 100 | 4100 | 13 |  |
| OC[C@@H]1[C@@H](O)[C@H](O)[C@@H](O)CN1CCCCCOCc1ccc(-c2ccccc2)c(C(F)(F)F)c1 [#ID 120] | 16 | 720 | 2.4 |  |
| O=C(CCCCCN1C[C@H](O)[C@@H](O)[C@H](O)[C@H]1CO)NC12CC3CC(CC(C3)C1)C2 [#ID 18] | 360 | 2400 | 24 |  |
| OC[C@@H]1[C@@H](O)[C@H](O)[C@@H](O)CN1CCCCOCCC12CC3CC(CC(C3)C1)C2 [#ID 203] | 42 | 2100 | 9.2 |  |
| CCCCN1C[C@H](O)[C@@H](O)[C@@H](O)[C@H]1CO [#ID 153] | 3600 | 19000 | 14 |  |
| OC[C@@H]1[C@@H](O)[C@H](O)[C@@H](O)CN1CCCCCCOCC12CC3CC(CC(C3)C1)C2 [#ID 141] | 290 | 580 | 1.8 |  |
| CCCCCCCOCCCCCN1C[C@H](O)[C@@H](O)[C@H](O)[C@H]1CO [#ID 23] |  |  |  | IC50 ([1]; Table S2, 4-MU alpha glucoside substrate, listed as 23, read-out: IC50 on rhGAA): 290 nM; GAA FP% (residual FP-signal) ([2]; listed as 23): 16%; IC50 ([3]; Table S2, 4-MU alpha glucoside substrate, listed as 23, read-out: IC50 on GANAB): 7200 nM |
